US11203613B2, “Peptidomimetic proteasome inhibitors” (CORNELL UNIVERSITY, priority 2017, dated 2021)

Molecular target: Human Constitutive (Hu C-20S) β5 Active Subunit (Homo sapiens, UniProt P28074)
Assay: IC50 determination, human constitutive 20S proteasome β5c (suc-LLVY-AMC hydrolysis)
Format: biochemical
Conditions: Table 3; IC50 against human constitutive β5 active subunit; read-out: Hu-C20S β5

Compound | IC50 [µM]
C[C@H]1CCCCN1C(=O)C[C@H](NC(=O)C1CC2(C1)CC(F)(F)C2)C(=O)NC1(c2nc3cccc(F)c3[nH]2)CC1 (stereo in doubt) [CEN-62, 6,6-Difluoro-N—((S)-1-((1-(7-fluoro-1H-benzo[d]imidazol-2-yl)cyclopropyl)amino)-4-((S)-2-methylpiperidin-1-yl)-1,4-dioxobutan-2-yl)spiro[3.3]heptane-2-carboxamide] | 2.4
CC[C@H]1CCCCN1C(=O)C[C@H](N)C(=O)N[C@@H](C)c1nc2c(F)cccc2[nH]1 [CEN-1, (S)-2-Amino-4-((S)-2-ethylpiperidin-1-yl)-N—((S)-1-(4-fluoro-1H-benzo[d]imidazol-2-yl)ethyl)-4-oxobutanamide] | 14.2
CC[C@H]1CCCCN1C(=O)C[C@H](NC(=O)CC1CC1)C(=O)N[C@@H](C)c1nc2c(F)cccc2[nH]1 [CEN-2, (S)-2-(2-Cyclopropylacetamido)-4-((S)-2-ethylpiperidin-1-yl)-N—((S)-1-(4-fluoro-1H-benzo[d]imidazol-2-yl)ethyl)-4-oxobutanamide] | 16.9
CC[C@H]1CCCCN1C(=O)C[C@H](NC(=O)CCC(C)C)C(=O)N[C@@H](C)c1nc2c(F)cccc2[nH]1 [CEN-3, N—((S)-4-((S)-2-Ethylpiperidin-1-yl)-1-(((S)-1-(4-fluoro-1H-benzo[d]imidazol-2-yl)ethyl)amino)-1,4-dioxobutan-2-yl)-4-methylpentanamide] | 10.6
CC[C@H]1CCCCN1C(=O)C[C@H](NC(=O)CCN(C)C)C(=O)N[C@@H](C)c1nc2c(F)cccc2[nH]1 [CEN-4, (S)-2-(3-(Dimethylamino)propanamido)-4-((S)-2-ethylpiperidin-1-yl)-N—((S)-1-(4-fluoro-1H-benzo[d]imidazol-2-yl)ethyl)-4-oxobutanamide] | 6.4
CC[C@H]1CCCCN1C(=O)C[C@H](NC(=O)OCC(C)C)C(=O)N[C@@H](C)c1nc2c(F)cccc2[nH]1 [CEN-5, Isobutyl ((S)-4-((S)-2-Ethylpiperidin-1-yl)-1-(((S)-1-(4-fluoro-1H-benzo[d]imidazol-2-yl)ethyl)amino)-1,4-dioxobutan-2-yl)carbamate] | 2.5
CC[C@H]1CCCCN1C(=O)C[C@H](NC(=O)c1cc(C)on1)C(=O)N[C@@H](C)c1nc2c(F)cccc2[nH]1 [CEN-6, N—((S)-4-((S)-2-Ethylpiperidin-1-yl)-1-(((S)-1-(4-fluoro-1H-benzo[d]imidazol-2-yl)ethyl)amino)-1,4-dioxobutan-2-yl)-5-methylisoxazole-3-carboxamide] | 7.1
CC[C@H]1CCCCN1C(=O)C[C@H](NC(=O)CC(F)(F)F)C(=O)N[C@@H](C)c1nc2c(F)cccc2[nH]1 [CEN-7, (S)-4-((S)-2-Ethylpiperidin-1-yl)-N—((S)-1-(4-fluoro-1H-benzo[d]imidazol-2-yl)ethyl)-4-oxo-2-(3,3,3-trifluoropropanamido)butanamide] | 4.2
CC[C@H]1CCCCN1C(=O)C[C@H](Nc1nc(C(C)C)no1)C(=O)N[C@@H](C)c1nc2c(F)cccc2[nH]1 [CEN-8, (S)-4-((S)-2-Ethylpiperidin-1-yl)-N—((S)-1-(4-fluoro-1H-benzo[d]imidazol-2-yl)ethyl)-2-((3-isopropyl-1,2,4-oxadiazol-5-yl)amino)-4-oxobutanamide] | 3.6
CC[C@H]1CCCCN1C(=O)C[C@H](NC(=O)C1CC(C)(C)C1)C(=O)N[C@@H](C)c1nc2c(F)cccc2[nH]1 [CEN-9, N—((S)-4-((S)-2-Ethylpiperidin-1-yl)-1-(((S)-1-(4-fluoro-1H-benzo[d]imidazol-2-yl)ethyl)amino)-1,4-dioxobutan-2-yl)-3,3-dimethylcyclobutane-1-carboxamide] | 4.4
CC[C@H]1CCCCN1C(=O)C[C@H](NC(=O)C1CC1C(C)C)C(=O)N[C@@H](C)c1nc2c(F)cccc2[nH]1 (stereo partly drawn) [CEN-10, N—((S)-4-((S)-2-Ethylpiperidin-1-yl)-1-(((S)-1-(4-fluoro-1H-benzo[d]imidazol-2-yl)ethyl)amino)-1,4-dioxobutan-2-yl)-2-isopropylcyclopropane-1-carboxamide] | 37.7
CC[C@H]1CCCCN1C(=O)C[C@H](NC(=O)c1cncs1)C(=O)N[C@@H](C)c1nc2c(F)cccc2[nH]1 [CEN-11, N—((S)-4-((S)-2-Ethylpiperidin-1-yl)-1-(((S)-1-(4-fluoro-1H-benzo[d]imidazol-2-yl)ethyl)amino)-1,4-dioxobutan-2-yl)thiazole-5-carboxamide] | 19.2
CC[C@H]1CCCCN1C(=O)C[C@H](NC(=O)N1CCCCC1)C(=O)N[C@@H](C)c1nc2c(F)cccc2[nH]1 [CEN-12, N—((S)-4-((S)-2-Ethylpiperidin-1-yl)-1-(((S)-1-(4-fluoro-1H-benzo[d]imidazol-2-yl)ethyl)amino)-1,4-dioxobutan-2-yl)piperidine-1-carboxamide] | 3
CC[C@H]1CCCCN1C(=O)C[C@H](NC(=O)CCC(C)(C)C)C(=O)N[C@@H](C)c1nc2c(F)cccc2[nH]1 [CEN-13, N—((S)-4-((S)-2-Ethylpiperidin-1-yl)-1-(((S)-1-(4-fluoro-1H-benzo[d]imidazol-2-yl)ethyl)amino)-1,4-dioxobutan-2-yl)-4,4-dimethylpentanamide] | 11.2
CC[C@H]1CCCCN1C(=O)C[C@H](NC(=O)N1CCOCC1)C(=O)N[C@@H](C)c1nc2c(F)cccc2[nH]1 [CEN-14, N—((S)-4-((S)-2-Ethylpiperidin-1-yl)-1-(((S)-1-(4-fluoro-1H-benzo[d]imidazol-2-yl)ethyl)amino)-1,4-dioxobutan-2-yl)morpholine-4-carboxamide] | 4.5
CC[C@H]1CCCCN1C(=O)C[C@H](NC(=O)N(C)CC(C)C)C(=O)N[C@@H](C)c1nc2c(F)cccc2[nH]1 [CEN-15, (S)-4-((S)-2-Ethylpiperidin-1-yl)-N—((S)-1-(4-fluoro-1H-benzo[d]imidazol-2-yl)ethyl)-2-(3-isobutyl-3-methylureido)-4-oxobutanamide] | 5
CC[C@H]1CCCCN1C(=O)C[C@H](Nc1nc2ccccc2o1)C(=O)N[C@@H](C)c1nc2c(F)cccc2[nH]1 [CEN-16, (S)-2-(Benzo[d]oxazol-2-ylamino)-4-((S)-2-ethylpiperidin-1-yl)-N—((S)-1-(4-fluoro-1H-benzo[d]imidazol-2-yl)ethyl)-4-oxobutanamide] | 4.5
CC[C@H]1CCCCN1C(=O)C[C@H](NC(=O)C1CC2(CCC2)C1)C(=O)N[C@@H](C)c1nc2c(F)cccc2[nH]1 [CEN-17, N—((S)-4-((S)-2-Ethylpiperidin-1-yl)-1-(((S)-1-(4-fluoro-1H-benzo[d]imidazol-2-yl)ethyl)amino)-1,4-dioxobutan-2-yl)spiro[3.3]heptane-2-carboxamide] | 13.4
CC[C@H]1CCCCN1C(=O)C[C@H](NC(=O)c1cnc(C)s1)C(=O)N[C@@H](C)c1nc2c(F)cccc2[nH]1 [CEN-18, N—((S)-4-((S)-2-Ethylpiperidin-1-yl)-1-(((S)-1-(4-fluoro-1H-benzo[d]imidazol-2-yl)ethyl)amino)-1,4-dioxobutan-2-yl)-2-methylthiazole-5-carboxamide] | 9.5
CC[C@H]1CCCCN1C(=O)C[C@H](Nc1nc2ccc(C)cc2o1)C(=O)N[C@@H](C)c1nc2c(F)cccc2[nH]1 [CEN-19, (S)-4-((S)-2-Ethylpiperidin-1-yl)-N—((S)-1-(4-fluoro-1H-benzo[d]imidazol-2-yl)ethyl)-2-((6-methylbenzo[d]oxazol-2-yl)amino)-4-oxobutanamide] | 1.1
CC[C@H]1CCCCN1C(=O)C[C@H](NC(=O)CCc1ccccc1)C(=O)N[C@@H](C)c1nc2c(F)cccc2[nH]1 [CEN-20, (S)-4-((S)-2-Ethylpiperidin-1-yl)-N—((S)-1-(4-fluoro-1H-benzo[d]imidazol-2-yl)ethyl)-4-oxo-2-(3-phenylpropanamido)butanamide] | 2.6
CC[C@H]1CCCCN1C(=O)C[C@H](NC(=O)NCc1ccccc1)C(=O)N[C@@H](C)c1nc2c(F)cccc2[nH]1 [CEN-21, (S)-2-(3-Benzylureido)-4-((S)-2-ethylpiperidin-1-yl)-N—((S)-1-(4-fluoro-1H-benzo[d]imidazol-2-yl)ethyl)-4-oxobutanamide] | 9.4
CC[C@H]1CCCCN1C(=O)C[C@H](Nc1nc2ccccc2s1)C(=O)N[C@@H](C)c1nc2c(F)cccc2[nH]1 [CEN-22, (S)-2-(Benzo[d]thiazol-2-ylamino)-4-((S)-2-ethylpiperidin-1-yl)-N—((S)-1-(4-fluoro-1H-benzo[d]imidazol-2-yl)ethyl)-4-oxobutanamide] | 1.2
CC[C@H]1CCCCN1C(=O)C[C@H](NC(=O)OCc1ccccc1)C(=O)N[C@@H](C)c1nc2c(F)cccc2[nH]1 [CEN-23, Benzyl ((S)-4-((S)-2-Ethylpiperidin-1-yl)-1-(((S)-1-(4-fluoro-1H-benzo[d]imidazol-2-yl)ethyl)amino)-1,4-dioxobutan-2-yl)carbamate] | 5.8
CC[C@H]1CCCCN1C(=O)C[C@H](NS(=O)(=O)CCC(C)C)C(=O)N[C@@H](C)c1nc2c(F)cccc2[nH]1 [CEN-24, (S)-4-((S)-2-Ethylpiperidin-1-yl)-N—((S)-1-(4-fluoro-1H-benzo[d]imidazol-2-yl)ethyl)-2-((3-methylbutyl)sulfonamido)-4-oxobutanamide] | 17.8
CC[C@H]1CCCCN1C(=O)C[C@H](NC(=O)[C@H]1C[C@@H]1c1ccccc1)C(=O)N[C@@H](C)c1nc2c(F)cccc2[nH]1 [CEN-25, (1S,2S)—N—((S)-4-((S)-2-Ethylpiperidin-1-yl)-1-(((S)-1-(4-fluoro-1H-benzo[d]imidazol-2-yl)ethyl)amino)-1,4-dioxobutan-2-yl)-2-phenylcyclopropane-1-carboxamide] | 8.1
CC[C@H]1CCCCN1C(=O)C[C@H](NC(=O)N(C)Cc1ccccc1)C(=O)N[C@@H](C)c1nc2c(F)cccc2[nH]1 [CEN-26, (S)-2-(3-Benzyl-3-methylureido)-4-((S)-2-ethylpiperidin-1-yl)-N—((S)-1-(4-fluoro-1H-benzo[d]imidazol-2-yl)ethyl)-4-oxobutanamide] | 3.3
CC[C@H]1CCCCN1C(=O)C[C@H](Nc1nc(Cc2ccc(F)cc2)no1)C(=O)N[C@@H](C)c1nc2c(F)cccc2[nH]1 [CEN-27, (S)-4-((S)-2-Ethylpiperidin-1-yl)-N—((S)-1-(4-fluoro-1H-benzo[d]imidazol-2-yl)ethyl)-2-((3-(4-fluorobenzyl)-1,2,4-oxadiazol-5-yl)amino)-4-oxobutanamide] | 1.4
